According to US20060276464A1, “Diarylsulfone sulfonamides and use thereof” (Wyeth, priority 2005, published 2006):
Counter-ions that a name gives are not always drawn.

Assays:
SFRP-1 [1] = target: T1, SFRP-1 (Homo sapiens, UniProt Q8N474); experiment: Cell-based assay for in vitro measurement of SFRP-1/SARP2 antagonist activity (U2OS cells co-transfected with 16x TCF-tk-Luciferase reporter, Wnt and hSFRP-1); settings: for fold induction at 10 µM: U2OS, read-out: Fold Induction with SFRP-1, U2OS cells, single dose 10 μM, luciferase reporter, fold induction over SFRP-1 control;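 as to all read-outs here: U2OS cells co-transfected with a TCF-tk luciferase reporter, a Wnt vector, hSFRP-1 or empty vector and CMV-βgal, luciferase luminescence read in cell lysates alongside βgal activity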
T1 sequence (Q8N474 32-314): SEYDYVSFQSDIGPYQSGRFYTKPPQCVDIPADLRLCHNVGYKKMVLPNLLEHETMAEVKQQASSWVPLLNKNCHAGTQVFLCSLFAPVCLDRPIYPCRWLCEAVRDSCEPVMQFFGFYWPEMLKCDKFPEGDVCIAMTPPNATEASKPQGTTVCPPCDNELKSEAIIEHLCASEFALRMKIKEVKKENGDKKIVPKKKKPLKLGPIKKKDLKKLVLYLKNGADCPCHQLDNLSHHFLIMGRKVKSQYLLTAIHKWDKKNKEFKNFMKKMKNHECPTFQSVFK

SFRP-1 [2] = target: T1, SFRP-1; experiment: Fluorescence polarization binding assay (competitive displacement of a probe compound from SFRP-1); settings: fluorescence anisotropy, 45 nM SFRP-1, 20 nM probe;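 also: test compound competes with a fluorescent probe held by SFRP-1, seen as a drop in probe anisotropy after incubation in darkness, with anisotropy as function of rising compound dose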

| fold induction at 10 µM (SFRP-1 [1]) | IC50 (SFRP-1 [2]) [nM] | EC50 (SFRP-1 [1]) [nM] | SMILES |
| --- | --- | --- | --- |
| 1.7 | 3000 | – | O=S(=O)(NC1CCN(Cc2ccc(C(F)(F)F)cc2)CC1)c1cc(S(=O)(=O)c2ccccc2)ccc1C(F)(F)F [Example 749, 5-(phenylsulfonyl)-2-(trifluoromethyl)-N-{1-[4-(trifluoromethyl)benzyl]piperidin-4-yl}benzenesulfonamide] |
| 4.2 | 200 | 937 | N#CCN1CCC(NS(=O)(=O)c2cc(S(=O)(=O)c3ccccc3)ccc2C(F)(F)F)CC1 [Example 750, N-[1-(cyanomethyl)piperidin-4-yl]-5-(phenylsulfonyl)-2-(trifluoromethyl)benzenesulfonamide] |
| 3.1 | 300 | 4850 | O=C(CN1CCC(NS(=O)(=O)c2cc(S(=O)(=O)c3ccccc3)ccc2C(F)(F)F)CC1)c1ccccc1 [Example 751, N-[1-(2-oxo-2-phenylethyl)piperidin-4-yl]-5-(phenylsulfonyl)-2-(trifluoromethyl)benzenesulfonamide] |
| 3.8 | 400 | 1090 | N#CCCNS(=O)(=O)c1cc(S(=O)(=O)c2cccc(Cl)c2)ccc1C(F)(F)F [Example 752, 5-[(3-chlorophenyl)sulfonyl]-N-(2-cyanoethyl)-2-(trifluoromethyl)benzenesulfonamide] |
| 3.8 | 700 | – | CC(C)(C)c1ccc(C(=O)N2CCC(NS(=O)(=O)c3cc(S(=O)(=O)c4cccc(Cl)c4)ccc3C(F)(F)F)CC2)cc1 [Example 753, N-[1-(4-tert-butylbenzoyl)piperidin-4-yl]-5-[(3-chlorophenyl)sulfonyl]-2-(trifluoromethyl)benzenesulfonamide] |
| 2.5 | 400 | 1980 | O=S(=O)(NC1CCOCC1)c1cc(S(=O)(=O)c2cccc(Cl)c2)ccc1C(F)(F)F [Example 754, 5-[(3-chlorophenyl)sulfonyl]-N-(tetrahydro-2H-pyran-4-yl)-2-(trifluoromethyl)benzenesulfonamide] |
| 3.8 | 160 | 1430 | O=S(=O)(NCCc1cccnc1)c1cc(S(=O)(=O)c2cccc(Cl)c2)ccc1C(F)(F)F [Example 755, 5-[(3-chlorophenyl)sulfonyl]-N-(2-pyridin-3-ylethyl)-2-(trifluoromethyl)benzenesulfonamide] |
| 3.1 | 1100 | – | O=S(=O)(NCC(O)c1ccccn1)c1cc(S(=O)(=O)c2ccccc2)ccc1C(F)(F)F (stereo not shown) [Example 757, N-(2-hydroxy-2-pyridin-2-ylethyl)-5-(phenylsulfonyl)-2-(trifluoromethyl)benzenesulfonamide] |
| 3.4 | 300 | 582 | O=C(c1ccccc1OC(F)(F)F)N1CCC(NS(=O)(=O)c2cc(S(=O)(=O)c3ccccc3)ccc2C(F)(F)F)CC1 [Example 758, 5-(phenylsulfonyl)-N-{1-[2-(trifluoromethoxy)benzoyl]piperidin-4-yl}-2-(trifluoromethyl)benzenesulfonamide] |
| 3.5 | 1600 | – | CC(C)(C)c1ccc(NC(=O)N2CCC(NS(=O)(=O)c3cc(S(=O)(=O)c4ccccc4)ccc3C(F)(F)F)CC2)cc1 [Example 759, N-(4-tert-butylphenyl)-4-({[5-(phenylsulfonyl)-2-(trifluoromethyl)phenyl]sulfonyl}amino)piperidine-1-carboxamide] |
| 3.2 | 600 | 1570 | CC(C)(C)c1ccc(C(=O)N2CCC(NS(=O)(=O)c3cc(S(=O)(=O)c4ccccc4)ccc3C(F)(F)F)C2)cc1 (stereo not shown) [Example 761, N-[1-(4-tert-butylbenzoyl)pyrrolidin-3-yl]-5-(phenylsulfonyl)-2-(trifluoromethyl)benzenesulfonamide] |
| 2.2 | 2100 | – | NCCNS(=O)(=O)c1cc(S(=O)(=O)c2ccccc2)ccc1C(F)(F)F [Example 762, N-(2-Aminoethyl)-5-(phenylsulfonyl)-2-(trifluoromethyl)benzenesulfonamide hydrochloride] |
| 2.7 | 1700 | – | O=S(=O)(NC1CCN(c2ccc(C(F)(F)F)cc2)CC1)c1cc(S(=O)(=O)c2ccccc2)ccc1C(F)(F)F [Example 763, 5-(phenylsulfonyl)-2-(trifluoromethyl)-N-{1-[4-(trifluoromethyl)phenyl]piperidin-4-yl}benzenesulfonamide] |
| 0.6 | 270 | 463 | CC(C)(C)c1ccc(C(=O)N2CCC(NS(=O)(=O)c3cc(S(=O)(=O)c4cccc(O)c4)ccc3C(F)(F)F)CC2)cc1 [Example 764, N-[1-(4-tert-butylbenzoyl)piperidin-4-yl]-5-[(3-hydroxyphenyl)sulfonyl]-2-(trifluoromethyl)benzenesulfonamide] |
| 3.7 | 190 | 754 | O=S(=O)(NCC1CCOCC1)c1cc(S(=O)(=O)c2ccccc2)ccc1C(F)(F)F [Example 765, 5-(phenylsulfonyl)-N-(tetrahydro-2H-pyran-4-ylmethyl)-2-(trifluoromethyl)benzenesulfonamide] |
| 2.7 | 400 | 1220 | O=S(=O)(NCCN1CCOCC1)c1cc(S(=O)(=O)c2ccccc2)ccc1C(F)(F)F [Example 766, N-(2-morpholin-4-ylethyl)-5-(phenylsulfonyl)-2-(trifluoromethyl)benzenesulfonamide] |
| 3.6 | 900 | – | O=S(=O)(NCCCN1CCOCC1)c1cc(S(=O)(=O)c2ccccc2)ccc1C(F)(F)F [Example 767, N-(3-morpholin-4-ylpropyl)-5-(phenylsulfonyl)-2-(trifluoromethyl)benzenesulfonamide] |
| 3.4 | 400 | 1130 | COCCCNS(=O)(=O)c1cc(S(=O)(=O)c2ccccc2)ccc1C(F)(F)F [Example 768, N-(3-methoxypropyl)-5-(phenylsulfonyl)-2-(trifluoromethyl)benzenesulfonamide] |
| 1.7 | 2700 | – | O=C(NCCNS(=O)(=O)c1cc(S(=O)(=O)c2ccccc2)ccc1C(F)(F)F)c1ccccc1 [Example 770, N-[2-({[5-(Phenylsulfonyl)-2-(trifluoromethyl)phenyl]sulfonyl}amino)ethyl]benzamide] |
| 3.5 | 80 | 733 | O=S(=O)(NCCc1ccncc1)c1cc(S(=O)(=O)c2ccccc2)ccc1C(F)(F)F [Example 771, 5-(phenylsulfonyl)-N-(2-pyridin-4-ylethyl)-2-(trifluoromethyl)benzenesulfonamide] |
| 1.2 | 80 | – | O=S(=O)(NC1Cc2ccccc2C1)c1cc(S(=O)(=O)c2ccccc2)ccc1C(F)(F)F [Example 772, N-(2,3-dihydro-1H-inden-2-yl)-5-(phenylsulfonyl)-2-(trifluoromethyl)benzenesulfonamide] |
| 1.2 | 1900 | 1300 | O=S(=O)(NC[C@H](O)c1ccccc1)c1cc(S(=O)(=O)c2ccccc2)ccc1C(F)(F)F [Example 773, N-[(2R)-2-hydroxy-2-phenylethyl]-5-(phenylsulfonyl)-2-(trifluoromethyl)benzenesulfonamide] |
| 1.3 | 60 | 973 | O=S(=O)(NC[C@@H](O)c1ccccc1)c1cc(S(=O)(=O)c2ccccc2)ccc1C(F)(F)F [Example 774, N-[(2S)-2-hydroxy-2-phenylethyl]-5-(phenylsulfonyl)-2-(trifluoromethyl)benzenesulfonamide] |
| 3.2 | 700 | – | O=C(NCCNS(=O)(=O)c1cc(S(=O)(=O)c2ccccc2)ccc1C(F)(F)F)c1ccncc1 [Example 783, N-[2-({[5-(Phenylsulfonyl)-2-(trifluoromethyl)phenyl]sulfonyl}amino)ethyl]isonicotinamide] |
| 3 | 3000 | – | CC[C@H](CO)NS(=O)(=O)c1cc(S(=O)(=O)c2ccccc2)ccc1C(F)(F)F [Example 784, N-[(1R)-1-(hydroxymethyl)propyl]-5-(phenylsulfonyl)-2-(trifluoromethyl)benzenesulfonamide] |
| 2.9 | 1100 | – | COc1cccc(S(=O)(=O)c2ccc(C(F)(F)F)c(S(=O)(=O)NCCO)c2)c1 [Example 785, N-(2-hydroxyethyl)-5-[(3-methoxyphenyl)sulfonyl]-2-(trifluoromethyl)benzenesulfonamide] |
| 1.7 | 4400 | – | CC(C)(C)OC(=O)N1CCC[C@H](NS(=O)(=O)c2cc(S(=O)(=O)c3ccccc3)ccc2C(F)(F)F)C1 [Example 786, tert-butyl(3S)-3-({[5-(phenylsulfonyl)-2-(trifluoromethyl)phenyl]sulfonyl}amino)piperidine-1-carboxylate] |
| 3.7 | 300 | 896 | CC(C)(C)OC(=O)N1CCC[C@@H](NS(=O)(=O)c2cc(S(=O)(=O)c3ccccc3)ccc2C(F)(F)F)C1 [Example 787, tert-butyl(3R)-3-({[5-(phenylsulfonyl)-2-(trifluoromethyl)phenyl]sulfonyl}amino)piperidine-1-carboxylate] |
| 3.1 | 2000 | – | O=S(=O)(N[C@H]1CCCNC1)c1cc(S(=O)(=O)c2ccccc2)ccc1C(F)(F)F [Example 790, 5-(phenylsulfonyl)-N-[(3S)-piperidin-3-yl]-2-(trifluoromethyl)benzenesulfonamide] |
